Source: patent US20130251730A1, “Compounds and Mixtures Influencing Inflammatory States” (SYMRISE AG, priority 2012, published 2013)
Marks after values point to notes of the source that are not given here.

How the values were obtained:
[1] = tested on: IL-6 release by human gingival fibroblastic cells (HGF-1); test: Release of IL-6 by HGF-1 cells after stimulation with 10 μg/ml PG-LPS (magnetic bead assay); assay type: cell-based
Procedure: Human gingival fibroblastic cells (HGF-1) were sowed out in 24-well plates with 15,000 cells per well and cultivated for 3 to 5 days. DNEM containing 10% FBS, 1% penicillin/streptomycin and 4% glutamine was used as the medium. For determination of the anti-inflammatory action the cells were incubated with 10 μg/ml PG-LPS for 6 and 9 hrs. Subsequently, the release of IL-6 and IL-8 per magnetic bead was determined (Procarta, Affimetrix) using a MAGPIX equipment (Merck-Millipore) and analysed using the Milliplex software (Merck Millipore). In each case 4 samples with two technical replicates were measured. In addition to this control the cells were co-incubated with • (a) 10 μg/ml PG-LPS and also with • (b) solutions of the Herba Santa extract according to Example 1 (HS, containing 21.7% HED, […]); • (c) the flavonoid fraction (“FF”) obtained as a by-product according to Example 4 (containg 41.5% HED, […]); • (d) the extract rich in erionic acid (“ES”) according to Example 4 or isolated erionic acid B (according to Example 2) and • (e) erionic acid C according to Example 3 (each 0,1 μM, 1 μM and 10 μM).
(§1) After incubation the cell culture medium was transferred into an Eppendorf reaction vessel and at 4° C. for 10 min subjected to centrifugation (1000×g) in order to separate the cell depris. The upper layer was stored at −80° C. until the analysis started. The results of the release of IL-6 and […]

[2] = tested on: IL-8 release by human gingival fibroblastic cells (HGF-1); test: Release of IL-8 by HGF-1 cells after stimulation with 10 μg/ml PG-LPS (magnetic bead assay); assay type: cell-based
Procedure: Human gingival fibroblastic cells (HGF-1) were sowed out in 24-well plates with 15,000 cells per well and cultivated for 3 to 5 days. DNEM containing 10% FBS, 1% penicillin/streptomycin and 4% glutamine was used as the medium. For determination of the anti-inflammatory action the cells were incubated with 10 μg/ml PG-LPS for 6 and 9 hrs. Subsequently, the release of IL-6 and IL-8 per magnetic bead was determined (Procarta, Affimetrix) using a MAGPIX equipment (Merck-Millipore) and analysed using the Milliplex software (Merck Millipore). In each case 4 samples with two technical replicates were measured. In addition to this control the cells were co-incubated with • (a) 10 μg/ml PG-LPS and also with • (b) solutions of the Herba Santa extract according to Example 1 (HS, containing 21.7% HED, 0.1 μM, 1 μM and 10 μM calculated on HED); • (c) the flavonoid fraction (“FF”) obtained as a by-product according to Example 4 (containg 41.5% HED, 0,1 μM, 1 μM and 10 μM calculated on HED); • (d) the extract rich in erionic acid (“ES”) according to Example 4 or isolated erionic acid B (according to Example 2) and • (e) erionic acid C according to Example 3 (each 0,1 μM, 1 μM and 10 μM).
as §1

[3] = 10 μg/ml PG-LPS + 1 μg/ml test substance, 6 h
[4] = 10 μg/ml PG-LPS + 1 μg/ml test substance, 9 h
[5] = 10 μg/ml PG-LPS + 10 μg/ml test substance, 6 h
[6] = 10 μg/ml PG-LPS + 10 μg/ml test substance, 9 h
[7] = 10 μg/ml PG-LPS + 100 μg/ml test substance, 6 h
[8] = 10 μg/ml PG-LPS + 100 μg/ml test substance, 9 h
[9] = co-incubation with 10 μg/ml PG-LPS, 6 and 9 hrs, 0.1, 1 and 10 μM

SMILES: CC(CCc1cc(C(=O)O)cc2c1OC(C)(C)C(O)C2)C(=O)/C=C/C(C)(C)O (centres unmarked) [Erionic acid B, 3-hydroxy-8-((E)-7-hydroxy-3,7-dimethyl-4-oxo-oct-5-enyl)-2,2-dimethyl-chroman-6-carboxylic acid]
- IL-6 T/C [%] [1, 3]: 61.93* %
- IL-6 T/C [%] [1, 4]: 77.51* %
- IL-6 T/C [%] [1, 5]: 102.30%
- IL-6 T/C [%] [1, 6]: 61.47*** %
- IL-6 T/C [%] [1, 7]: 41.30** %
- IL-6 T/C [%] [1, 8]: 102.74%
- release of IL-6 [1, 9]: significant reduction
- IL-8 T/C [%] [2, 3]: 79.91%
- IL-8 T/C [%] [2, 4]: 77.33%
- IL-8 T/C [%] [2, 5]: 134.54** %
- IL-8 T/C [%] [2, 6]: 71.35%
- IL-8 T/C [%] [2, 7]: 46.30** %
- IL-8 T/C [%] [2, 8]: 116.34%
- release of IL-8 [2, 9]: significant reduction
